# Source: US9556164B2, “Salts of Dasatinib in crystalline form” (BASF SE, priority 2013, dated 2017)
# Details: DVS at 25° C., humidity program 50% r.h. to 95% r.h. and back to 50% r.h.
# Protocol: Dynamic vapor sorption: DVS is performed at 25° C. with an SPS11-100n “Sorptions Prüfsystem” of Projekt Messtechnik, D-89077 Ulm (Germany). About 25 mg of sample is put into an aluminum sample pan. Humidity program: 50% relative humidity (r.h.) for 2 hours, 50% r.h. to 95% r.h. (humidity change rate 5% per hour), 95% r.h. for 5 hours, 95% r.h. to 50% r.h. (humidity change rate 5% per hour), 50% r.h. for 2 hours.
smiles,measurement,value
"Cc1nc(Nc2ncc(C(=O)Nc3c(C)cccc3Cl)s2)cc(N2CCN(CCO)CC2)n1.O=C1NS(=O)(=O)c2ccccc21 [Example 5, Dasatinib saccharinate (hydrate)]",hygroscopicity by DVS,not hygroscopic
